Laboratory results from ChEMBL document CHEMBL1201862, “PubChem BioAssay data set” (2004).
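Values below derive from 48-hour exposures of cells grown in 96-well plates, with endpoints linearly interpolated between the two concentrations bracketing the appropriate inhibition level. GI50: concentration for 50% inhibition of growth.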 Activity calls are given as the source filed them. Rule as the data show it: active = GI50 up to about 1.1 µM and inactive = higher.

Assays:
Assay in all cases: DTP human tumour cell line panel, 48 h
OVCAR-4 = test system: OVCAR-4
PC-3 = test system: PC-3
HOP-92 = test system: HOP-92
SR = test system: SR
MCF7 = test system: MCF7
K562 = test system: K562
SF-539 = test system: SF-539
CCRF-CEM = test system: CCRF-CEM
UO-31 = test system: UO-31
SNB-19 = test system: SNB-19
IGROV-1 = test system: IGROV-1
NCI-H23 = test system: NCI-H23
OVCAR-5 = test system: OVCAR-5
A498 = test system: A498
M14 = test system: M14
NCI-H522 = test system: NCI-H522
UACC-62 = test system: UACC-62
LOX IMVI = test system: LOX IMVI
UACC-257 = test system: UACC-257
SK-MEL-5 = test system: SK-MEL-5
786-0 = test system: 786-0
SK-OV-3 = test system: SK-OV-3
RXF 393 = test system: RXF 393
U-251 = test system: U-251
TK-10 = test system: TK-10
SF-268 = test system: SF-268
HOP-62 = test system: HOP-62
T47D = test system: T47D
SK-MEL-28 = test system: SK-MEL-28
SNB-75 = test system: SNB-75
SK-MEL-2 = test system: SK-MEL-2
SN12C = test system: SN12C
OVCAR-3 = test system: OVCAR-3
HCT-15 = test system: HCT-15
HCC 2998 = test system: HCC 2998
OVCAR-8 = test system: OVCAR-8
CAKI-1 = test system: CAKI-1
NCI-H460 = test system: NCI-H460
ACHN = test system: ACHN
MDA-MB-435 = test system: MDA-MB-435
HCT-116 = test system: HCT-116
DU-145 = test system: DU-145
MDA-MB-231 = test system: MDA-MB-231
MDA-N = test system: MDA-N
COLO 205 = test system: COLO 205
RPMI-8226 = test system: RPMI-8226
SF-295 = test system: SF-295
HL-60 = test system: HL-60
A549 = test system: A549
HT-29 = test system: HT-29
Malme-3M = test system: Malme-3M
Hs-578T = test system: Hs-578T
KM12 = test system: KM12
NCI/ADR-RES = test system: NCI/ADR-RES
MOLT-4 = test system: MOLT-4
NCI-H226 = test system: NCI-H226
SW-620 = test system: SW-620
EKVX = test system: EKVX

N#Cc1nc(C(F)(F)F)oc1N
GI50 (OVCAR-4): > 100 µM (inactive)
GI50 (PC-3): > 100 µM (inactive)
GI50 (HOP-92): > 100 µM (inactive)
GI50 (SR): > 100 µM (inactive)
GI50 (MCF7): > 100 µM (inactive)
GI50 (K562): > 100 µM (inactive)
GI50 (SF-539): > 100 µM (inactive)
GI50 (CCRF-CEM): 95.3 µM (inactive)
GI50 (UO-31): > 100 µM (inactive)
GI50 (SNB-19): > 100 µM (inactive)
GI50 (IGROV-1): > 100 µM (inactive)
GI50 (NCI-H23): > 100 µM (inactive)
GI50 (OVCAR-5): > 100 µM (inactive)
GI50 (A498): > 100 µM (inactive)
GI50 (M14): > 100 µM (inactive)
GI50 (NCI-H522): 66.1 µM (inactive)
GI50 (UACC-62): > 100 µM (inactive)
GI50 (LOX IMVI): > 100 µM (inactive)
GI50 (UACC-257): > 100 µM (inactive)
GI50 (SK-MEL-5): > 100 µM (inactive)
GI50 (786-0): > 100 µM (inactive)
GI50 (SK-OV-3): > 100 µM (inactive)
GI50 (RXF 393): > 100 µM (inactive)
GI50 (U-251): > 100 µM (inactive)
GI50 (TK-10): > 100 µM (inactive)
GI50 (SF-268): > 100 µM (inactive)
GI50 (HOP-62): > 100 µM (inactive)
GI50 (T47D): > 100 µM (inactive)
GI50 (SK-MEL-28): > 100 µM (inactive)
GI50 (SNB-75): > 100 µM (inactive)
GI50 (SK-MEL-2): > 100 µM (inactive)
GI50 (SN12C): > 100 µM (inactive)
GI50 (OVCAR-3): > 100 µM (inactive)
GI50 (HCT-15): > 100 µM
GI50 (HCC 2998): > 100 µM (inactive)
GI50 (OVCAR-8): > 100 µM (inactive)
GI50 (CAKI-1): > 100 µM (inactive)
GI50 (NCI-H460): > 100 µM (inactive)
GI50 (ACHN): > 100 µM (inactive)
GI50 (MDA-MB-435): > 100 µM (inactive)
GI50 (HCT-116): > 100 µM (inactive)
GI50 (DU-145): > 100 µM (inactive)
GI50 (MDA-MB-231): > 100 µM (inactive)
GI50 (MDA-N): > 100 µM (inactive)
GI50 (COLO 205): > 100 µM (inactive)
GI50 (RPMI-8226): > 100 µM (inactive)
GI50 (SF-295): > 100 µM (inactive)
GI50 (HL-60): > 100 µM (inactive)
GI50 (A549): > 100 µM (inactive)
GI50 (HT-29): > 100 µM (inactive)
GI50 (Malme-3M): > 100 µM (inactive)
GI50 (Hs-578T): > 100 µM (inactive)
GI50 (KM12): > 100 µM (inactive)
GI50 (NCI/ADR-RES): > 100 µM (inactive)
GI50 (MOLT-4): > 100 µM (inactive)
GI50 (NCI-H226): > 100 µM (inactive)
GI50 (SW-620): > 100 µM (inactive)
GI50 (EKVX): > 100 µM (inactive)
